Values of other authors, collected in US12557843B2, “Other than cannabinoids, flavonoids, and terpenes” (priority 2020, dated 2026).

Key:
[1] = system: laboratory animals
[2] = system: leukaemia
[3] = system: breast cancer cells
[4] = system: PGE-2
[5] = target: CB2 cannabinoid receptor (Homo sapiens, UniProt P34972)
[6] = target: acetylcholinesterase (Homo sapiens, UniProt P22303)
[7] = system: GABA receptors
[8] = system: monoamine oxidase enzyme (MAO)

Sequence of acetylcholinesterase (P22303 32-614, species assumed): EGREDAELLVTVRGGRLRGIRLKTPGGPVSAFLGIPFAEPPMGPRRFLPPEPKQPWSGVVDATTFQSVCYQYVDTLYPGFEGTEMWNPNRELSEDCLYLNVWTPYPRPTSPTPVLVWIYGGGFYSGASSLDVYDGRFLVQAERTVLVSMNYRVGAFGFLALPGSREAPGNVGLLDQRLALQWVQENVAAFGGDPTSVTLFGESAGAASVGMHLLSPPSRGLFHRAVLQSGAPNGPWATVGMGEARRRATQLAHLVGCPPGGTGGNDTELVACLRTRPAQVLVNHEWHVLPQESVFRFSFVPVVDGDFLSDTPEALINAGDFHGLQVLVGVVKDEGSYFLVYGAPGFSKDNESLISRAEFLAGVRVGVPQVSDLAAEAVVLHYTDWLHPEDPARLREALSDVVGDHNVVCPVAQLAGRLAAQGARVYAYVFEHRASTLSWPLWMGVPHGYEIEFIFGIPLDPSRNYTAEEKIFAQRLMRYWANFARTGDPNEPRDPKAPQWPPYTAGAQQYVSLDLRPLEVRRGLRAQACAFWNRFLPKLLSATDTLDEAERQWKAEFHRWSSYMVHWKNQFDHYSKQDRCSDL
Sequence of CB2 cannabinoid receptor (P34972 whole entry): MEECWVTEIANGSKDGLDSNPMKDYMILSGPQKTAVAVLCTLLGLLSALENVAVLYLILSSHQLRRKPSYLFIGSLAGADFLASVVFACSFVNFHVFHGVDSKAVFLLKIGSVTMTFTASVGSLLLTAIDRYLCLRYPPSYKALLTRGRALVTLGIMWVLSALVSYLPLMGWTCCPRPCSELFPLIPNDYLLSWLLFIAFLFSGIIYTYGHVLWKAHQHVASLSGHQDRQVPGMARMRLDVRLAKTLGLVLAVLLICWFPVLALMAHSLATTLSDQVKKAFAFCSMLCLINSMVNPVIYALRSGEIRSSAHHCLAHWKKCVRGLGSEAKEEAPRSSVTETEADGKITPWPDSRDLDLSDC

C=CC(C)(O)CCC=C(C)C (stereo not drawn) [Linalool]
effects in laboratory animals ([1]; linalool, mediated by adenosine A2A and glutamate receptors): analgesic effects

CC12CCC(CC1)C(C)(C)O2 [Eucalyptol, 1,8-cineol]
in vitro anti-leukaemia activity [2]: in vitro anti-leukaemia properties

C=C(C)[C@H]1CC=C(C)CC1 [Limonene]
effects suggested by studies on laboratory animals ([1]; limonene, rise of serotonin and dopamine in the brain): anxiolytic effects
apoptosis (cell death) [3]: produces apoptosis

COc1cc(-c2cc(=O)c3c(O)c(C/C=C(\C)CCC=C(C)C)c(O)cc3o2)ccc1O [cannaflavin-A]
effect on PGE-2 [4]: inhibits
anti-inflammatory power compared with aspirin ([4]; relative to aspirin): exponentially more powerful than aspirin

C=C1CC/C=C(\C)CC[C@@H]2[C@@H]1CC2(C)C [B-caryophyllene, β-caryophyllene]
effects proven in animal models ([1]; β-caryophyllene, animal models, not yet in humans): anti-inflammatory and analgesic effects
CB2 cannabinoid receptor activity [5]: CB2 cannabinoid receptor agonist

CC1=CCC2CC1C2(C)C (stereo not drawn) [A-pinene, α-pinene]
acetylcholinesterase inhibition [6]: acetylcholinesterase inhibitor

C=CC(=C)CCC=C(C)C [Myrcene]
properties shown in studies on laboratory animals ([1]; myrcene, laboratory animals): sedative, hypnotic, analgesic and muscle relaxant properties

O=c1cc(-c2ccc(O)cc2)oc2cc(O)cc(O)c12 [apigenin]
action on the GABA receptors [7]: anxiolytic and sedative

O=c1c(O)c(-c2ccc(O)c(O)c2)oc2cc(O)cc(O)c12 [quercitin, quercetin]
effect on monoamine oxidase enzyme (MAO) [8]: inhibits
